Numbered stars: 1 amine (or outer) side, 2 acyl side, 3 side chain; on linkers, the order of the positions; unused ones are H or OH. Bridge positions count the residues as written; N and C are the ends. Square brackets hold non-standard residues; d marks the D form. Peptide text beside a SMILES is read from it. * marks the point of attachment. ξ: configuration not given here. X6 = NCCNCC(CNCCN)C(=O)NCCOCCOCCOCCOCCOCCOCCC(=O)NCCCOCCOCCOCCCN*; X1 = NCCNCC(CNCCN)C(=O)N1CCN(CC(=O)NCCCOCCOCCOCCCN*)CC1; Pyridine(3,5-bisCH2) = c1ncc(C[*:2])cc1C[*:1]; mXylylene = c1cc(C[*:1])cc(C[*:2])c1; Suc = O=C(CCC(=O)[*:2])[*:1]; Nle = CCCC[C@H](N)C(=O)O; ξC = NC(CS)C(=O)O
How the values were obtained:
[1] = Radiochemical purity by HPLC of ^99mTc-labeled compounds; type: physicochemical; details: 99Tc-labeled compounds
Protocol: 100-500 MBq of ^99mTcO4 (in saline) were mixed with 11 μl of 0.5 M phosphate buffer pH 11.5-12.0 and 1.1 μl of 0.1 M trisodium citrate per 100 μl radionuclide solution. […] The mixture was incubated for 30 min at 25-50′° C. At the end of the incubation time, the mixture was neutralized with 3.0 μl 1 M HCl per 10 μl phosphate buffer and TWEEN-20 was added at a final concentration of 0.100.

[2] = target: T1, FAP-expressing human WI-38 fibroblasts (Homo sapiens, UniProt Q12884); assay: Competitive FACS binding assay
T1 construct: FAP-expressing human WI-38 fibroblasts (ECACC) were cultured in EMEM; host or cells: WI-38 human fibroblasts
Protocol: Cells were analyzed in an Attune NxT flow cytometer. […] […].
Cells were analyzed in an Attune NxT flow cytometer. […]

in vivo = details: swiss nude, mouse, iv
Human recombinant FAP [3] = target: T2, Human recombinant FAP (Homo sapiens, UniProt Q12884); assay: FRET-based FAP protease activity assay; type: biochemical; design: purchased R&D systems 3715-SE; details: pIC50 Category (activity), Recombinant human FAP
Human recombinant FAP [4] = target: T2, Human recombinant FAP; assay: Surface plasmon resonance (Biacore) assay; type: binding

T2 sequence (Q12884 whole entry): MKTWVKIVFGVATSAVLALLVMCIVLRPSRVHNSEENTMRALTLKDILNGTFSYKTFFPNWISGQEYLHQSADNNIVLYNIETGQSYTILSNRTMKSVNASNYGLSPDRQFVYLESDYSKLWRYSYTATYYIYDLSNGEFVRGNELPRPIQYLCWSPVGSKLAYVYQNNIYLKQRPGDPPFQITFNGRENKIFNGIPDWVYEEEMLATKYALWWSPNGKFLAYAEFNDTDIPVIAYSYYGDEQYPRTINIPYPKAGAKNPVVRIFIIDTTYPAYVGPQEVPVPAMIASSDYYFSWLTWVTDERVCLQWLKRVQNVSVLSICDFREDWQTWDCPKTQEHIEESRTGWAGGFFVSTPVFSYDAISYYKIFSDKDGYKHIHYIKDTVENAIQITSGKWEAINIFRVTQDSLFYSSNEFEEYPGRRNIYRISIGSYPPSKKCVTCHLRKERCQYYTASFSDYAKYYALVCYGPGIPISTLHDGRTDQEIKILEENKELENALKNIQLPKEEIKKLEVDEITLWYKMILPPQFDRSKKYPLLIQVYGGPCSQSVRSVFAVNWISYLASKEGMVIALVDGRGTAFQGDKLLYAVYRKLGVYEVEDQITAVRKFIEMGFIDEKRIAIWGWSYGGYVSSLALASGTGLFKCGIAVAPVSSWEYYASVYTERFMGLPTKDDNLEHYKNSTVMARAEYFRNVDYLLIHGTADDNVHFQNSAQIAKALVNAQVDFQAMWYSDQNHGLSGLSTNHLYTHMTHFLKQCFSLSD
T1 sequence (Q12884 whole entry): as above

With `CCCC[C@H](NC(=O)CCC(=O)NCCCOCCOCCOCCCNC(=O)CCOCCOCCOCCOCCOCCOCCNC(=O)C(CNCCN)CNCCN)C(=O)N[C@H]1CSCc2cccc(c2)CSC[C@@H](C(=O)O)NC(=O)[C@H](Cc2ccccc2)NC(=O)[C@H](CCC(=O)O)NC(=O)[C@H]([C@@H](C)O)NC(=O)[C@@H]2CCCN2C(=O)[C@@H]2CCCN2C1=O` [3BP-4780, N4Ac-PEG6-Ttds-Nle-[Cys(3MeBn)-Pro-Pro-Thr-Glu-Phe-Cys]-OH] ({X6-Suc}-[Nle]CPPTEFC-OH; linker 2-8 via mXylylene) the “HPLC Area % appr. 4 h post end of synthesis” value (“HPLC Area % appr. 4 h post end” for short) [1] was 92.3%, the “HPLC Area % at end of synthesis” value [1] was 95.0% and the IC50 [2] was 10 to 79.4 nM. The tissue uptake at 1 h (in vivo; blood pool surrogate (BPS)) was 0.81 %ID/g, the tissue uptake at 3 h (in vivo; blood pool surrogate (BPS)) was 0.61 %ID/g and the tissue uptake at 6 h (in vivo; blood pool surrogate (BPS)) was 0.43 %ID/g. The tissue uptake at 1 h (in vivo; kidneys) was 8.11 %ID/g, the tissue uptake at 3 h (in vivo; kidneys) was 6.14 %ID/g and the tissue uptake at 6 h (in vivo; kidneys) was 4.36 %ID/g. It also gave a tissue uptake at 1 h (in vivo; tumor) of 6.71 %ID/g, a tissue uptake at 3 h (in vivo; tumor) of 7.01 %ID/g and a tissue uptake at 6 h (in vivo; tumor) of 7.92 %ID/g. The IC50 (Human recombinant FAP [3]) was less than 10 nM.

In the case of `CCCC[C@H](NC(=O)CCC(=O)NCCCOCCOCCOCCCNC(=O)CN1CCN(C(=O)C(CNCCN)CNCCN)CC1)C(=O)N[C@H]1CSCc2cncc(c2)CSCC(C(=O)O)NC(=O)[C@H](Cc2ccccc2)NC(=O)[C@H](CCC(=O)O)NC(=O)[C@H]([C@@H](C)O)NC(=O)[C@@H]2CCCN2C(=O)[C@@H]2CCCN2C1=O` (stereo partly drawn) [3BP-4775, N4Ac-PPAc-Ttds-Nle-[Cys(3Lut)-Pro-Pro-Thr-Glu-Phe-Cys]-OH] ({X1-Suc}-[Nle]CPPTEF[ξC]-OH; linker 2-8 via Pyridine(3,5-bisCH2)), the “HPLC Area % appr. 4 h post end” value [1] is reported as 88.1%, the “HPLC Area % at end of synthesis” value [1] is reported as 86.4% and the Kd (Human recombinant FAP [4]) is reported as 10 to 79.4 nM. The IC50 [2] was 10 to 79.4 nM, the tissue uptake at 1 h (in vivo; blood pool surrogate (BPS)) was 0.21 %ID/g and the tissue uptake at 3 h (in vivo; blood pool surrogate (BPS)) was 0.18 %ID/g. The tissue uptake at 6 h (in vivo; blood pool surrogate (BPS)) was 0.04 %ID/g, the tissue uptake at 1 h (in vivo; kidneys) was 8.98 %ID/g and the tissue uptake at 3 h (in vivo; kidneys) was 6.31 %ID/g. For the same compound, the tissue uptake at 6 h (in vivo; kidneys) was 4.28 %ID/g, the tissue uptake at 1 h (in vivo; tumor) was 7.88 %ID/g and the tissue uptake at 3 h (in vivo; tumor) was 6.28 %ID/g. It also gave a tissue uptake at 6 h (in vivo; tumor) of 4.55 %ID/g and an IC50 (Human recombinant FAP [3]) of 10 to 79.4 nM.

For `CCCC[C@H](NC(=O)CCC(=O)NCCCOCCOCCOCCCNC(=O)CCOCCOCCOCCOCCOCCOCCNC(=O)C(CNCCN)CNCCN)C(=O)N[C@H]1CSCc2cccc(c2)CSCC(C(=O)O)NC(=O)[C@H](Cc2ccccc2)NC(=O)[C@H](CCC(N)=O)NC(=O)[C@H]([C@@H](C)O)NC(=O)[C@@H]2CCCN2C(=O)[C@@H]2CCCN2C1=O` (stereo partly drawn) [3BP-4552, N4Ac-PEG6-Ttds-Nle-[Cys(3MeBn)-Pro-Pro-Thr-Gln-Phe-Cys]-OH], the “HPLC Area % at end of synthesis” value [1] was 88.3%, the IC50 [2] was 10 to 79.4 nM and the tissue uptake at 1 h (in vivo; blood pool surrogate (BPS)) was 0.52 %ID/g. The tissue uptake at 3 h (in vivo; blood pool surrogate (BPS)) was 0.14 %ID/g, the tissue uptake at 6 h (in vivo; blood pool surrogate (BPS)) was 0.07 %ID/g and the tissue uptake at 1 h (in vivo; kidneys) was 3.17 %ID/g. For the same compound, the tissue uptake at 3 h (in vivo; kidneys) was 3.4 %ID/g, the tissue uptake at 6 h (in vivo; kidneys) was 1.34 %ID/g and the tissue uptake at 1 h (in vivo; tumor) was 7.92 %ID/g. For the same compound, the tissue uptake at 3 h (in vivo; tumor) was 6.86 %ID/g, the tissue uptake at 6 h (in vivo; tumor) was 5.21 %ID/g and the IC50 (Human recombinant FAP [3]) was 10 to 79.4 nM.

With `CCCC[C@H](NC(=O)CCC(=O)NCCCOCCOCCOCCCNC(=O)CN1CCN(C(=O)C(CNCCN)CNCCN)CC1)C(=O)N[C@H]1CSCc2cccc(c2)CSC[C@@H](C(=O)NCCC(=O)O)NC(=O)[C@H](Cc2ccccc2)NC(=O)[C@H](CCC(N)=O)NC(=O)[C@H]([C@@H](C)O)NC(=O)[C@@H]2CCCN2C(=O)[C@@H]2CCCN2C1=O` [3BP-4960, N4Ac-PPAc-Ttds-Nle-[Cys(3MeBn)-Pro-Pro-Thr-Gln-Phe-Cys]-Bal-OH] the “HPLC Area % appr. 4 h post end” value [1] was 92.3%, the “HPLC Area % at end of synthesis” value [1] was 95.2% and the Kd (Human recombinant FAP [4]) was less than 10 nM. It also gave an IC50 [2] of less than 10 nM, a tissue uptake at 1 h (in vivo; blood pool surrogate (BPS)) of 0.74 %ID/g and a tissue uptake at 3 h (in vivo; blood pool surrogate (BPS)) of 0.47 %ID/g. For the same compound, the tissue uptake at 6 h (in vivo; blood pool surrogate (BPS)) was 0.17 %ID/g, the tissue uptake at 1 h (in vivo; kidneys) was 1.96 %ID/g and the tissue uptake at 3 h (in vivo; kidneys) was 1.21 %ID/g. For the same compound, the tissue uptake at 6 h (in vivo; kidneys) was 1.21 %ID/g, the tissue uptake at 1 h (in vivo; tumor) was 10.5 %ID/g and the tissue uptake at 3 h (in vivo; tumor) was 12.8 %ID/g. The tissue uptake at 6 h (in vivo; tumor) was 12.1 %ID/g and the IC50 (Human recombinant FAP [3]) was less than 10 nM.

With `CCCC[C@H](NC(=O)CCC(=O)NCCCOCCOCCOCCCNC(=O)CN1CCN(C(=O)C(CNCCN)CNCCN)CC1)C(=O)N[C@H]1CSCc2cccc(c2)CSC[C@@H](C(=O)N[C@@H](CC(=O)O)C(=O)O)NC(=O)[C@H](Cc2ccccc2)NC(=O)[C@H](CCC(=O)O)NC(=O)[C@H]([C@@H](C)O)NC(=O)[C@@H]2CCCN2C(=O)[C@@H]2CCCN2C1=O` [3BP-4785, N4Ac-PPAc-Ttds-Nle-[Cys(3MeBn)-Pro-Pro-Thr-Glu-Phe-Cys]-Asp-OH] ({X1-Suc}-[Nle]CPPTEFCD-OH; linker 2-8 via mXylylene) the “HPLC Area % appr. 4 h post end” value [1] was 93.8%, the “HPLC Area % at end of synthesis” value [1] was 95.3% and the IC50 [2] was less than 10 nM. It also gave a tissue uptake at 1 h (in vivo; blood pool surrogate (BPS)) of 0.92 %ID/g, a tissue uptake at 3 h (in vivo; blood pool surrogate (BPS)) of 0.64 %ID/g and a tissue uptake at 6 h (in vivo; blood pool surrogate (BPS)) of 0.48 %ID/g. The tissue uptake at 1 h (in vivo; kidneys) was 3.47 %ID/g, the tissue uptake at 3 h (in vivo; kidneys) was 2.14 %ID/g and the tissue uptake at 6 h (in vivo; kidneys) was 1.63 %ID/g. It also gave a tissue uptake at 1 h (in vivo; tumor) of 4.2 %ID/g, a tissue uptake at 3 h (in vivo; tumor) of 4.14 %ID/g and a tissue uptake at 6 h (in vivo; tumor) of 4.32 %ID/g. The IC50 (Human recombinant FAP [3]) was less than 10 nM.

Source: patent publication US20230212549A1, “COMPOUNDS COMPRISING A […] LIGAND AND USE THEREOF” (priority 2021, published 2023)
